Here are results for one molecule from paper PMC10148497, “Evaluation of Bacillus aryabhattai B8W22 peroxidase for phenol removal in waste water effluents” (BMC Microbiology, 2023).

SMILES strings stand for the structures.

As usually defined, the Km is the substrate concentration at which the rate is half of its maximum.

The assay concerns T1, peroxidase from Bacillus aryabhattai B8W22.
T1 construct: gene extracellular peroxidase; 66 kDa on SDS-PAGE
Description: peroxidase activity assay, Lineweaver-Burk plot. The note with it: co-substrate, pH and temperature of the kinetic assay not given. It counts as biochemical, Priestia aryabhattai.

`COc1ccccc1O` [guaiacol]: the Km is 6.942 mg/mL.
